The subject of data set [1] is mice. Nature of the data set: Action on the toxicity of yohimbine to mice. It counts as in vivo. The settings on record: yohimbine hydrochloride 25 mg.kg^-1 s.c. The method, then:
Action on the toxicity of yohimbine to mice
At time 0, the mice receive, by oral administration, either distilled water or the medicament according to the invention; after 30 minutes, yohimbine hydrochloride (25 mg.kg^-1) is administered subcutaneously to the mice. The mortality is followed every hour for 4 hours and then recorded after 24 hours.

The test system of data set [2] is mice. The data set is described as follows: Anti-reserpine activity in mice (reserpine hypothermia). The settings on record: Table IIb, reserpine 2.5 mg.kg^-1 i.p. 4 h before. The data set is classed as in vivo. The protocol: Anti-reserpine activity in mice
At time 0, the mice receive reserpine (2.5 mg.kg^-1) by intraperitoneal administration.
After 4 hours, when the hypothermia is significant (30 to 31°C.), the substance to be studied is administered intraperitoneally or orally. The rectal temperature is measured, using a probe, carrying a thermoelectric couple, inserted to a constant depth, every 30 minutes for 2 hours.

Data set [3] is described as follows: Determination of the acute toxicity to mice (BEHRENS and KARBER). The conditions noted are these: mouse, in vivo. The protocol:
All the experiments reported below were carried out on male rats having a weight of between 170 and 220 g (Wistar AF strain) and male mice having a weight of between 18 and 23 g (Swiss NMRI strain), unless otherwise stated in the following text.
Determination of the acute toxicity to mice
Method used: BEHRENS and KARBER

In data set [4] the test system is mice. The data set is described as follows: Anti-oxotremorine activity in mice (hypothermia induced by oxotremorine). It counts as in vivo. The conditions noted are these: at the doses studied, oral or intraperitoneal. The protocol:
Anti-oxotremorine activity in mice
At time 0, the mice receive oxotremorine (0.5 mg.kg^-1) by intraperitoneal administration; after 30 minutes, either distilled water or the medicament according to the invention, obtained in accordance with Example I, is administered to the mice intraperitoneally or orally.
The mice are then observed and the trembling is rated from 0 to 3 as a function of its intensity, every 10 minutes for 30 minutes. Moreover, the existence of peripheral symptoms (tears, hypersialosis and defections) is observed for 2 hours, in the presence or absence of trembling. The rectal temperature is measured every 30 minutes for 2 hours, after administration of oxotremorine.

Data set [5] has as its system rats. Nature of the data set: Study of the stereotypies in rats. It counts as in vivo. The settings on record: rats. The method, then: Study of the stereotypies in rats
(§1) The tests were carried out on batches of 6 rats for each dose; immediately after the oral or intraperitoneal administration, the animals are placed in individual, transparent plastic 20×10×10 cm boxes provided with a pierced stainless steel lid. The stereotyped movements are rated from 0 to 3, in accordance with the method described by Simon and Chermat (J. Pharmacol. (Paris), 1972, 3, 235-238) every 10 minutes until they disappear in all the animals. The detailed curves are plotted and the surface area of the curve is calculated as described in the above reference.

The test system of data set [6] is mice. Nature of the data set: Motor activity in mice (activity meters with photoelectric cells). The data set is classed as in vivo. The conditions noted are these: comparison of isomers; 32 mg/kg orally; in particular stimulant action. The protocol:
The motor activity was determined with the aid of activity meters having photoelectric cells (Boissier and Simon, Arch. int. Pharmacodyn. 1965, 158, 212-221). A minimum of 10 animals was always used per batch.
The mice are placed in the activity meter just after the oral or intraperitoneal administration of the product acccording to the invention, obtained in accordance with Example I. The motor activity is measured as from the introduction into the activity meter up to the 60th minute. The counters are read after 30 minutes, then reset to 0 and read every 10 minutes for 30 minutes.

Data set [7] concerns rats. Nature of the data set: Influence of pimozide on the stereotypies caused in rats. It counts as in vivo. The settings on record: pimozide 1 mg.kg^-1 i.p. 30 min before Example III 8 mg.kg^-1 i.p. The protocol: as §1
Research into the antagonistic effects of the stereotypies caused in rats by the medicament according to the invention
(a) Influence of pimozide
At time 0, pimozide (1 mg.kg^-1) or distilled water is administered intraperitoneally; after 30 minutes, all the animals receive, by intraperitoneal administration, the medicament according to the invention, obtained in accordance with Example III (8 mg.kg^-1). The stereotypies are assessed as described above. The surface area of the curve of the stereotypies is calculated.

Where a name gives a salt, the structure may show the parent alone. Read-outs that look alike come from different tables or passages of the source.

As for `CC(O)CC(c1ccc(Cl)cc1)C(C(=O)O)c1ccccc1` (stereo not shown) [product IV, sodium salt of 3-(4'-chlorophenyl)-5-hydroxy-2-phenylhexanoic acid], the “Mortality in % after the administration of yohimbine” value (shortened to “Mortality in %”) in the data set with mice [1] (Table Vb, 2 mg/kg administered orally, 4 hours) was found to be 10%; in the data set with mice [1] (Table Vb, 2 mg/kg administered orally, 24 hours), 10%; in the data set on mice [1] (Table Vb, 4 mg/kg administered orally, 4 hours), 20%; in the data set with mice [1] (Table Vb, 4 mg/kg administered orally, 24 hours), 20%; with mice [1] (Table Vb, 8 mg/kg administered orally, 4 hours), 30%; in the data set with mice [1] (Table Vb, 8 mg/kg administered orally, 24 hours) it was 30%. For the same compound, the “Mortality in %” value in the data set on mice [1] (Table Vb, 16 mg/kg administered orally, 4 hours) turned out to be 70%; in the data set on mice [1] (Table Vb, 16 mg/kg administered orally, 24 hours), 70%; in the data set with mice [1] (Table Vb, 32 mg/kg administered orally, 4 hours), 80%; with mice [1] (Table Vb, 32 mg/kg administered orally, 24 hours), 80%; in the data set with mice [1] (Table Vb, 64 mg/kg administered orally, 4 hours) it was 100%; in the data set with mice [1] (Table Vb, 64 mg/kg administered orally, 24 hours), 100%. The “Mortality in %” value with mice [1] (Table Vb, 128 mg/kg administered orally, 4 hours) was 80%; with mice [1] (Table Vb, 128 mg/kg administered orally, 24 hours), 80%; in the data set with mice [1] (Table Vb, 256 mg/kg administered orally, 4 hours), 100%; with mice [1] (Table Vb, 256 mg/kg administered orally, 24 hours), 100%. Also, the “Rectal temperatures °C. ± SD” value with mice [2] (8 mg/kg oral, 30 min) stood at 30.9 ± 0.36 °C; in the data set with mice [2] (8 mg/kg oral, 60 min) it was 32.0 ± 0.56 °C; in the data set on mice [2] (8 mg/kg oral, 90 min), 32.2 ± 0.57 °C; in the data set with mice [2] (8 mg/kg oral, 120 min), 33.2 ± 0.56 °C; in the data set on mice [2] (16 mg/kg oral, 30 min) it was 31.1 ± 0.39 °C; in the data set on mice [2] (16 mg/kg oral, 60 min), 32.5 ± 0.60 °C. Also, the “Rectal temperatures °C. ± SD” value in the data set with mice [2] (16 mg/kg oral, 90 min) is 32.7 ± 0.51 °C; in the data set on mice [2] (16 mg/kg oral, 120 min), 33.1 ± 0.43 °C; in the data set with mice [2] (32 mg/kg oral, 30 min) it was 31.3 ± 0.31 °C; in the data set on mice [2] (32 mg/kg oral, 60 min), 33.0 ± 0.44 °C; in the data set on mice [2] (32 mg/kg oral, 90 min) it was 33.7 ± 0.41 °C; in the data set on mice [2] (32 mg/kg oral, 120 min), 33.2 ± 0.38 °C. Further, the “Rectal temperatures °C. ± SD” value in the data set on mice [2] (64 mg/kg oral, 30 min) was determined as 32.8 ± 0.40 °C; in the data set on mice [2] (64 mg/kg oral, 60 min), 34.3 ± 0.32 °C; in the data set with mice [2] (64 mg/kg oral, 90 min), 34.5 ± 0.38 °C; with mice [2] (64 mg/kg oral, 120 min) it was 34.4 ± 0.41 °C. The LD50 in data set [3] (ip, intraperitoneal, read-out: LD50 (intraperitoneal administration)) is 160 mg/kg; in data set [3] (oral, read-out: LD50 (oral administration)) it was 310 mg/kg.

Take “Threo-2-(4'-chlorophenyl)-4-hydroxy-1-phenylpentanecarbonitrile [Example II]”: the “Mortality in %” value was 0% with mice [1] (Table Va, 2 mg/kg oral, 4 hours); 0% with mice [1] (Table Va, 2 mg/kg oral, 24 hours); 0% with mice [1] (Table Va, 4 mg/kg oral, 4 hours); 0% in the data set with mice [1] (Table Va, 4 mg/kg oral, 24 hours); 10% with mice [1] (Table Va, 8 mg/kg oral, 4 hours); 10% with mice [1] (Table Va, 8 mg/kg oral, 24 hours). Besides, the “Mortality in %” value in the data set on mice [1] (Table Va, 16 mg/kg oral, 4 hours) is 20%; in the data set with mice [1] (Table Va, 16 mg/kg oral, 24 hours) it was 20%; in the data set on mice [1] (Table Va, 32 mg/kg oral, 4 hours), 25%; in the data set with mice [1] (Table Va, 32 mg/kg oral, 24 hours) it was 25%; with mice [1] (Table Va, 64 mg/kg oral, 4 hours) it was 30%; with mice [1] (Table Va, 64 mg/kg oral, 24 hours), 30%. For the same compound, the “Mortality in %” value with mice [1] (Table Va, 128 mg/kg oral, 4 hours) stood at 60%; with mice [1] (Table Va, 128 mg/kg oral, 24 hours) it was 60%; in the data set on mice [1] (Table Va, 256 mg/kg oral, 4 hours), 70%; with mice [1] (Table Va, 256 mg/kg oral, 24 hours), 70%. In the data set on mice [4], the “trembling and peripheral symptoms caused by oxotremorine” value is “did not cause any modification”. Further, the “stereotypy activity, oral versus intraperitoneal administration” value with rats [5] (figure) is reported as “slightly greater on oral administration”. Moreover, the “dose from which very significant stereotypies are present” value with rats [5] (mean surface area of the curve (figure)) was at least 8 mg/kg.

`CC1CC(c2ccc(Cl)cc2)C(c2ccccc2)C(=O)O1` (stereo not drawn) [100% of β, Trans-4-(4'-chlorophenyl)-6-methyl-3phenyl-3,4,5,6-tetrahydropyrone-2, IIIβ]: the “activity compared with the mixture of 80 % of α and 20 % of β” value with mice [6] is reported as “more active”.

For `O=c1[nH]c2ccccc2n1C1CCN(CCCC(c2ccc(F)cc2)c2ccc(F)cc2)CC1` [pimozide, reference compound], the “effect of pimozide on the stereotypies caused by the medicament” value with rats [7] is given as “very significantly antagonizes the stereotypies”.

For the origin of these results see patent US4287206A, “Halogen derivatives of 8-hydroxycarboxylic acids; the processes for their preparation and medicaments in which they are present” (priority 1978, dated 1981).
